Measured values from PubChem BioAssay (NCI).
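Growth conditions: 96-well plates. Treatment: test compound, 48 hours, 5 concentrations. Analysis: linear interpolation between bracketing concentrations; unreached endpoints set to highest concentration. Abbreviation: GI50, concentration required for 50% inhibition of growth. The concentration for full growth arrest is given as TGI.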

Experiments:
Assay in all cases: DTP human tumour cell line panel, 48 h
786-0 renal = system: 786-0 renal
A498 renal = system: A498 renal
A549 NSCLC = system: A549 NSCLC
ACHN renal = system: ACHN renal
BT-549 breast = system: BT-549 breast
CAKI-1 renal = system: CAKI-1 renal
CCRF-CEM leukemia = system: CCRF-CEM leukemia
COLO 205 colon = system: COLO 205 colon
DU-145 prostate = system: DU-145 prostate
EKVX NSCLC = system: EKVX NSCLC
HCC-2998 colon = system: HCC-2998 colon
HCT-116 colon = system: HCT-116 colon
HCT-15 colon = system: HCT-15 colon
HL-60(TB) leukemia = system: HL-60(TB) leukemia
HOP-62 NSCLC = system: HOP-62 NSCLC
HOP-92 NSCLC = system: HOP-92 NSCLC
HS 578T breast = system: HS 578T breast
HT29 colon = system: HT29 colon
IGROV1 ovarian = system: IGROV1 ovarian
K-562 leukemia = system: K-562 leukemia
KM12 colon = system: KM12 colon
LOX IMVI melanoma = system: LOX IMVI melanoma
M14 melanoma = system: M14 melanoma
MALME-3M melanoma = system: MALME-3M melanoma
MCF7 breast = system: MCF7 breast
MDA-MB-231 breast = system: MDA-MB-231 breast
MDA-MB-435 = system: MDA-MB-435
MOLT-4 leukemia = system: MOLT-4 leukemia
NCI-H226 lung = system: NCI-H226 lung
NCI-H23 lung = system: NCI-H23 lung
NCI-H460 lung = system: NCI-H460 lung
NCI-H522 lung = system: NCI-H522 lung
NCI/ADR-RES ovarian = system: NCI/ADR-RES ovarian
OVCAR-3 ovarian = system: OVCAR-3 ovarian
OVCAR-4 ovarian = system: OVCAR-4 ovarian
OVCAR-5 ovarian = system: OVCAR-5 ovarian
OVCAR-8 ovarian = system: OVCAR-8 ovarian
PC-3 prostate = system: PC-3 prostate
RPMI-8226 leukemia = system: RPMI-8226 leukemia
RXF 393 renal = system: RXF 393 renal
SF-268 CNS = system: SF-268 CNS
SF-295 CNS = system: SF-295 CNS
SF-539 CNS = system: SF-539 CNS
SK-MEL-2 melanoma = system: SK-MEL-2 melanoma
SK-MEL-28 melanoma = system: SK-MEL-28 melanoma
SK-MEL-5 melanoma = system: SK-MEL-5 melanoma
SK-OV-3 ovarian = system: SK-OV-3 ovarian
SN12C renal = system: SN12C renal
SNB-19 CNS = system: SNB-19 CNS
SNB-75 CNS = system: SNB-75 CNS
SR leukemia = system: SR leukemia
SW-620 colon = system: SW-620 colon
T-47D breast = system: T-47D breast
TK-10 renal = system: TK-10 renal
U251 CNS = system: U251 CNS
UACC-257 melanoma = system: UACC-257 melanoma
UACC-62 melanoma = system: UACC-62 melanoma
UO-31 renal = system: UO-31 renal

With CCOC(=O)/C=C\[C@H]1OC(C)(C)O[C@H]1[C@H](O)[C@H]1COC(C)(C)O1 the TGI (786-0 renal) was 39.2 µM, the TGI (A498 renal) was 37.6 µM and the TGI (A549 NSCLC) was over 100 µM. It also gave a TGI (ACHN renal) of 32.6 µM, a TGI (BT-549 breast) of 42.2 µM and a TGI (CAKI-1 renal) of 7.88 µM. The TGI (CCRF-CEM leukemia) was 39 µM, the TGI (COLO 205 colon) was 32.3 µM and the TGI (DU-145 prostate) was over 100 µM. The TGI (EKVX NSCLC) was 50.1 µM, the TGI (HCC-2998 colon) was 28.6 µM and the TGI (HCT-116 colon) was 39 µM. It also gave a TGI (HCT-15 colon) of 33.1 µM, a TGI (HL-60(TB) leukemia) of 62.4 µM and a TGI (HOP-62 NSCLC) of over 100 µM. The TGI (HOP-92 NSCLC) was 31.3 µM, the TGI (HS 578T breast) was 93.2 µM and the TGI (HT29 colon) was 46.1 µM. For the same compound, the TGI (IGROV1 ovarian) was 37.7 µM, the TGI (K-562 leukemia) was 44.7 µM and the TGI (KM12 colon) was over 100 µM. For the same compound, the TGI (LOX IMVI melanoma) was 39.9 µM, the TGI (M14 melanoma) was 33 µM and the TGI (MALME-3M melanoma) was 41.7 µM. For the same compound, the TGI (MCF7 breast) was 40.7 µM, the TGI (MDA-MB-231 breast) was 33.9 µM and the TGI (MDA-MB-435) was 35 µM. For the same compound, the TGI (MOLT-4 leukemia) was 40.5 µM, the TGI (NCI-H226 lung) was over 100 µM and the TGI (NCI-H23 lung) was 50.1 µM. It also gave a TGI (NCI-H460 lung) of over 100 µM, a TGI (NCI-H522 lung) of 29.7 µM and a TGI (NCI/ADR-RES ovarian) of over 100 µM. The TGI (OVCAR-3 ovarian) was 32.2 µM, the TGI (OVCAR-4 ovarian) was 46.5 µM and the TGI (OVCAR-5 ovarian) was 32.6 µM. For the same compound, the TGI (OVCAR-8 ovarian) was over 100 µM, the TGI (PC-3 prostate) was 37.6 µM and the TGI (RPMI-8226 leukemia) was 42.3 µM. It also gave a TGI (RXF 393 renal) of 35 µM, a TGI (SF-268 CNS) of 72.6 µM and a TGI (SF-295 CNS) of over 100 µM. It also gave a TGI (SF-539 CNS) of 32.1 µM, a TGI (SK-MEL-2 melanoma) of 52.4 µM and a TGI (SK-MEL-28 melanoma) of 35.6 µM. For the same compound, the TGI (SK-MEL-5 melanoma) was 33.5 µM, the TGI (SK-OV-3 ovarian) was over 100 µM and the TGI (SN12C renal) was 33.5 µM. For the same compound, the TGI (SNB-19 CNS) was over 100 µM, the TGI (SNB-75 CNS) was 13.3 µM and the TGI (SR leukemia) was 37.2 µM. The TGI (SW-620 colon) was 36.8 µM, the TGI (T-47D breast) was 46.7 µM and the TGI (TK-10 renal) was 30.8 µM. It also gave a TGI (U251 CNS) of 32.6 µM, a TGI (UACC-257 melanoma) of 55.5 µM and a TGI (UACC-62 melanoma) of 60.7 µM. For the same compound, the TGI (UO-31 renal) was 34.4 µM.

O=C(N/N=C\c1cc(Cl)ccc1O)c1ccncc1 gave a GI50 (786-0 renal) of 2.6 µM, a TGI (786-0 renal) of 32.2 µM and a GI50 (A498 renal) of 15.2 µM. The TGI (A498 renal) was over 100 µM, the GI50 (A549 NSCLC) was 12.9 µM and the TGI (A549 NSCLC) was over 100 µM. It also gave a GI50 (ACHN renal) of 1.91 µM, a TGI (ACHN renal) of over 100 µM and a GI50 (BT-549 breast) of 9.18 µM. The TGI (BT-549 breast) was over 100 µM, the GI50 (CAKI-1 renal) was 1.65 µM and the TGI (CAKI-1 renal) was over 100 µM. For the same compound, the GI50 (CCRF-CEM leukemia) was 2.15 µM, the TGI (CCRF-CEM leukemia) was over 100 µM and the GI50 (COLO 205 colon) was 4.21 µM. The TGI (COLO 205 colon) was over 100 µM, the GI50 (DU-145 prostate) was 4.63 µM and the TGI (DU-145 prostate) was over 100 µM. For the same compound, the GI50 (EKVX NSCLC) was 27.3 µM, the TGI (EKVX NSCLC) was over 100 µM and the GI50 (HCC-2998 colon) was 3.03 µM. The TGI (HCC-2998 colon) was over 100 µM, the GI50 (HCT-116 colon) was 1.63 µM and the TGI (HCT-116 colon) was over 100 µM. It also gave a GI50 (HCT-15 colon) of 0.576 µM, a TGI (HCT-15 colon) of over 100 µM and a GI50 (HL-60(TB) leukemia) of 3.02 µM. It also gave a TGI (HL-60(TB) leukemia) of over 100 µM, a GI50 (HOP-62 NSCLC) of 2.97 µM and a TGI (HOP-62 NSCLC) of over 100 µM. The GI50 (HOP-92 NSCLC) was 3.47 µM, the TGI (HOP-92 NSCLC) was 61.3 µM and the GI50 (HS 578T breast) was 26 µM. The TGI (HS 578T breast) was over 100 µM, the GI50 (HT29 colon) was 5.9 µM and the TGI (HT29 colon) was over 100 µM. It also gave a GI50 (IGROV1 ovarian) of 6.16 µM, a TGI (IGROV1 ovarian) of over 100 µM and a GI50 (K-562 leukemia) of 4.55 µM. For the same compound, the TGI (K-562 leukemia) was over 100 µM, the GI50 (KM12 colon) was 4.61 µM and the TGI (KM12 colon) was over 100 µM. For the same compound, the GI50 (LOX IMVI melanoma) was 1.56 µM, the TGI (LOX IMVI melanoma) was over 100 µM and the GI50 (M14 melanoma) was 3.05 µM. For the same compound, the TGI (M14 melanoma) was 23.4 µM, the GI50 (MALME-3M melanoma) was 14.6 µM and the TGI (MALME-3M melanoma) was over 100 µM. It also gave a GI50 (MCF7 breast) of 2.05 µM, a TGI (MCF7 breast) of over 100 µM and a GI50 (MDA-MB-231 breast) of 3.67 µM. For the same compound, the TGI (MDA-MB-231 breast) was over 100 µM, the GI50 (MDA-MB-435) was 11.7 µM and the TGI (MDA-MB-435) was over 100 µM. The GI50 (MOLT-4 leukemia) was 2.91 µM, the TGI (MOLT-4 leukemia) was over 100 µM and the GI50 (NCI-H226 lung) was 2.61 µM. The TGI (NCI-H226 lung) was 59 µM, the GI50 (NCI-H23 lung) was 4.01 µM and the TGI (NCI-H23 lung) was over 100 µM. It also gave a GI50 (NCI-H460 lung) of 1.46 µM, a TGI (NCI-H460 lung) of over 100 µM and a GI50 (NCI-H522 lung) of 2.69 µM. The TGI (NCI-H522 lung) was 22.4 µM, the GI50 (NCI/ADR-RES ovarian) was 2.01 µM and the TGI (NCI/ADR-RES ovarian) was over 100 µM. It also gave a GI50 (OVCAR-3 ovarian) of 0.617 µM, a TGI (OVCAR-3 ovarian) of over 100 µM and a GI50 (OVCAR-4 ovarian) of 0.967 µM. It also gave a TGI (OVCAR-4 ovarian) of 73.5 µM, a GI50 (OVCAR-5 ovarian) of 25.5 µM and a TGI (OVCAR-5 ovarian) of over 100 µM. For the same compound, the GI50 (OVCAR-8 ovarian) was 3.39 µM, the TGI (OVCAR-8 ovarian) was over 100 µM and the GI50 (PC-3 prostate) was 3.69 µM. The TGI (PC-3 prostate) was over 100 µM, the GI50 (RPMI-8226 leukemia) was 8.85 µM and the TGI (RPMI-8226 leukemia) was over 100 µM. It also gave a GI50 (RXF 393 renal) of 2.43 µM, a TGI (RXF 393 renal) of over 100 µM and a GI50 (SF-268 CNS) of 2.69 µM. It also gave a TGI (SF-268 CNS) of over 100 µM, a GI50 (SF-295 CNS) of 5.29 µM and a TGI (SF-295 CNS) of over 100 µM. The GI50 (SF-539 CNS) was 3.97 µM, the TGI (SF-539 CNS) was over 100 µM and the GI50 (SK-MEL-2 melanoma) was 19.5 µM. The TGI (SK-MEL-2 melanoma) was over 100 µM, the GI50 (SK-MEL-28 melanoma) was 3.05 µM and the TGI (SK-MEL-28 melanoma) was over 100 µM. It also gave a GI50 (SK-MEL-5 melanoma) of 1.96 µM, a TGI (SK-MEL-5 melanoma) of 19 µM and a GI50 (SK-OV-3 ovarian) of 5.39 µM. The TGI (SK-OV-3 ovarian) was over 100 µM, the GI50 (SN12C renal) was 4 µM and the TGI (SN12C renal) was over 100 µM. For the same compound, the GI50 (SNB-19 CNS) was 5.95 µM, the TGI (SNB-19 CNS) was over 100 µM and the GI50 (SNB-75 CNS) was 9.29 µM. It also gave a TGI (SNB-75 CNS) of over 100 µM, a GI50 (SR leukemia) of 2.85 µM and a TGI (SR leukemia) of over 100 µM. For the same compound, the GI50 (SW-620 colon) was 3.42 µM, the TGI (SW-620 colon) was over 100 µM and the GI50 (T-47D breast) was 2.1 µM. It also gave a TGI (T-47D breast) of over 100 µM, a GI50 (TK-10 renal) of 17.6 µM and a TGI (TK-10 renal) of over 100 µM. The GI50 (U251 CNS) was 1.86 µM, the TGI (U251 CNS) was over 100 µM and the GI50 (UACC-257 melanoma) was 4.16 µM. For the same compound, the TGI (UACC-257 melanoma) was over 100 µM, the GI50 (UACC-62 melanoma) was 1.48 µM and the TGI (UACC-62 melanoma) was 13.7 µM. For the same compound, the GI50 (UO-31 renal) was 2.18 µM and the TGI (UO-31 renal) was over 100 µM.
